Experimental data: US5006554A, “Organotin compounds” (The United States of America as represented by the …, priority 1989, dated 1991)

Legend:
[1] = Degradation in seawater protected from UV light at constant room temperature (half-life, GC MS); assay type: physicochemical; conditions: for stability in seawater relative to tributyltin bromide, absence of light: in words; for Half-life: protected from UV light, constant room temperature, estimated
Experimental: Degradation tests of the compounds included making ethanol solutions of the organotin bromides that were prepared at a concentration of approximately 1 mg/cm^3. Aliquots of the ethanol solutions were added to either 3.5% sodium bromide (NaBr) containing 1% acetone or to filtered seawater to obtain approximately 1-5 ppm concentrations in the seawater. The sodium bromide (NaBr) solution was placed in 125 cm^3 quartz tubes and exposed to sunlight over 48 h. The seawater solutions were kept in closed 500 cm^3 polycarbonate jars in the laboratory. Aliquots (10 cm^3) of the solutions were extracted at timed intervals with 1 cm^3 hexane after acidification with 0.1 cm^3 concentrated hydrochloric acid (HCl). Samples were analyzed by GC MS.
(§1) Half-lives of 33 days, 17 days and 16 days were estimated for tributyltin bromide, tri-3-butenyltin bromide and tri-1-butenyltin bromide in seawater, protected from UV light and held at a constant room temperature.

[2] = Degradation on exposure to direct sunlight in quartz tubes (loss of compound after 48 h, GC MS); assay type: physicochemical; conditions: for loss of compound: exposure to direct sunlight, quartz tubes, seawater solutions, after 48 h; for stability in seawater relative to tributyltin bromide, presence of light: in words
Experimental: Degradation tests of the compounds included making ethanol solutions of the organotin bromides that were prepared at a concentration of approximately 1 mg/cm^3. Aliquots of the ethanol solutions were added to either 3.5% sodium bromide (NaBr) containing 1% acetone or to filtered seawater to obtain approximately 1-5 ppm concentrations in the seawater. […] Aliquots (10 cm^3) of the solutions were extracted at timed intervals with 1 cm^3 hexane after acidification with 0.1 cm^3 concentrated hydrochloric acid (HCl). Samples were analyzed by GC MS.
as §1

[3] = Stability and chemical reactivity of the butenyltin compounds (neat, in solvents, in reaction mixture); assay type: physicochemical; conditions: for stability / reactivity in the synthesis mixture: crude reaction mixture, synthesis side-products; for stability as neat compound and in inert solvents: inert solvents (also ethanol)
Excerpt: Synthesis of the tetrabutenyltins presented no great difficulty as long as the Grignard reagent was present in large excess to assure complete alkylation. […] Under these conditions alkenyltin compounds were identified containing various numbers of […] groups in the mixture.
The other two tributenyltin bromides were stable as neat compounds, in inert solvents and in ethanol for a reasonable length of time. Chemical reactivity appeared to follow the order allyl > vinyl > alkyl.

[4] = test system: Photobacterium phosphoreum NRRL B-11177; assay: Microtox toxicity bioassay: reduction in light output by a luminescent bacterium; assay type: cell-based; conditions: relative to tributyltin bromide, from EC50
Experimental: Relative toxicity of compounds was determined using a Microtox Toxicity Analyzer Model 2055, manufactured by Microbics Corporation, Carlsbad, Calif., USA. This bioassay measures the relative reduction in light output by a luminescent bacterium, Photobacterium phosphoreum NRRL B-11177, when exposed to a toxicant. The bacteria are provided in a convenient freeze-dried form by Microbics Corporation and are immediately activated by the addition of 1 cm^3 of distilled water.
For Microtox testing, stock solutions of the compounds were prepared in 95% ethanol at approximately 1-2 mg/cm^3 Appropriate amounts of the ethanol solutions were added to 2% aqueous sodium chloride (NaCl) to achieve a workable concentration while keeping the ethanol concentration as low as possible. Typically, the ethanol concentration was about 0.05%.
Serial dilutions of each compound for measurement were performed in the Microtox photometer/incubator at 15° C. Controls consist of triplicate 1 cm^3 portions of 2% sodium chloride and candidate toxics were prepared in and subsequently serially diluted in 2% sodium chloride, with a final volume of 1 cm^3 for each dilution. After a 5-minute period for temperature equilibration, 10 μl of rehydrated bacteria was added to each of the controls and the serial dilutions of the test compound. […]

Compound	stability in seawater relative to tributyltin bromide, absence of light [1]	Half-life [1] [days]	loss of compound [2]	stability in seawater relative to tributyltin bromide, presence of light [2]	stability / reactivity in the synthesis mixture [3]	stability as neat compound and in inert solvents [3]	factor by which less toxic than tributyltin bromide [4]	stability / reactivity in the synthesis mixture ([3]; listed as Tri-2-butenyltin bromide)	stability / reactivity in the synthesis mixture ([3]; listed as tri-2butenyltin bromide)	stability sufficient for degradation and toxicity determinations ([3]; in words)	order of chemical reactivity ([3]; allyl > vinyl > alkyl)
CCC=[CH][Sn]([Br])([CH]=CCC)[CH]=CCC [tri-1-butenyltin bromide]	less stable in seawater	16	about 80%	less stable in seawater	tended spontaneously to form black precipitates during solvent evaporation of the crude mixture	stable as neat compounds and in inert solvents	about three	–	–	–	–
CC=C[CH2][Sn]([Br])([CH2]C=CC)[CH2]C=CC [tri-2-butenyltin bromide]	–	–	–	–	–	–	–	so reactive with the synthesis side-products that it could not be isolated	highly reactive and therefore transient	too reactive for other than structural studies	–
C=CC[CH2][Sn]([Br])([CH2]CC=C)[CH2]CC=C [tri-3-butenyltin bromide]	less stable in seawater	17	~100%	less stable in seawater	tended spontaneously to form black precipitates during solvent evaporation of the crude mixture	stable as neat compounds and in inert solvents	six	–	–	–	fell between tri-1-butenyltin bromide, containing vinylic carbons, and tributyltin bromide, the alkyl compound
CCC[CH2][Sn]([Br])([CH2]CCC)[CH2]CCC [tributyltin bromide, reference compound]	–	33	about 15%	–	–	–	–	–	–	–	–
